How the values were obtained:
[1] = Solid state stability under storage conditions (DSC, PXRD, HPLC); conditions: for solid state stability (physically and chemically): RT/RL, 25° C./60% RH, 40° C./75% RH, 50° C., up to 2 weeks, DSC, PXRD, HPLC analysis
Solubility in water = format: physicochemical; conditions: final pH 7.6
[2] = Mechanical stress on crystal form; format: physicochemical; conditions: mechanical stress applied
[3] = Moisture-sorption isotherm; format: physicochemical; conditions: from 25 to 75% RH at 25° C.
Experimental: Moisture sorption isotherms were collected in a VTI SGA-100 Symmetric Vapor Analyzer using approximately 10 mg of sample. The sample was dried at 60° C. until the loss rate of 0.0005 wt %/min was obtained for 10 minutes. The sample was tested at 25° C. and 3 or 4, 5, 15, 25, 35, 45, 50, 65, 75, 85, and 95% RH. Equilibration at each RH was reached when the rate of 0.0003 wt %/min for 35 minutes was achieved or a maximum of 600 minutes.

Question: Which “solid state stability (physically and chemically)” value [1] does the source give for `COc1ccc(OC(=O)N(CC(=O)O)[C@@H](C)c2ccc(OCCc3nc(-c4ccccc4)oc3C)cc2)cc1.NCCCC[C@H](N)C(=O)O` here?
Answer: Its value is “stable”.

Question: And the solubility in water (Solubility in water)?
Answer: The solubility in water was “greater than 124 mg/mL”.

Question: With `COc1ccc(OC(=O)N(CC(=O)O)[C@@H](C)c2ccc(OCCc3nc(-c4ccccc4)oc3C)cc2)cc1` [Form N-1, peliglitazar] as the molecule, how does the “conversion of N-1 form to the N-2 form under mechanical stress” value [2] read?
Answer: The value was “will not cause conversion”.

Question: What about the “moisture uptake (hygroscopicity)” value [3] of the same molecule?
Answer: The value was “negligible”.

Question: What about the “solid state stability (physically and chemically)” value [1] of the same molecule?
Answer: Its value is “stable”.

Question: What about the “conversion of the N-1 form to the N-2 form (PXRD analysis)” value ([1]; under the storage conditions of b18) of the same molecule?
Answer: Its value is “no conversion”.
